Data as given in the supplement of paper PMC10307832.

Legend:
Experiment in all cases: relative viability (nuclei count vs DMSO), 5 days (fraction); higher = more cells survive
IPA-3 + AZD7762 = compound: C1=CC=C2C(=C1)C=CC(=C2SSC3=C(C=CC4=CC=CC=C43)O)O [IPA-3] + NC(=O)Nc1cc(-c2cccc(F)c2)sc1C(=O)N[C@H]1CCCNC1 [AZD7762] (partner 0.2 µM)
In short: (§1)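 Relative viability was taken as the ratio of nuclei in treated wells to nuclei in vehicle wells. Lung cancer cell lines in 1536-well plates received compounds by pin tool one day after seeding, either one drug alone or a fixed anchor-drug dose plus five library-drug doses (not always all listed) in √10 steps. Nuclei were counted on 4× images after 5 days of treatment, and values are medians of duplicate plates.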

IPA-3 + Pemetrexed = compound: C1=CC=C2C(=C1)C=CC(=C2SSC3=C(C=CC4=CC=CC=C43)O)O [IPA-3] + Nc1nc2[nH]cc(CCc3ccc(C(=O)N[C@@H](CCC(=O)O)C(=O)O)cc3)c2c(=O)[nH]1 [Pemetrexed] (partner 0.2 µM)
In short: as §1

IPA-3 + Decitabine = compound: C1=CC=C2C(=C1)C=CC(=C2SSC3=C(C=CC4=CC=CC=C43)O)O [IPA-3] + Nc1ncn([C@H]2C[C@H](O)[C@@H](CO)O2)c(=O)n1 [Decitabine] (partner 2 µM)
In short: as §1

RAF265 + Trametinib = compound: Cn1c(Nc2ccc(C(F)(F)F)cc2)nc2cc(Oc3ccnc(-c4ncc(C(F)(F)F)[nH]4)c3)ccc21 [RAF265] + CC(=O)Nc1cccc(-n2c(=O)n(C3CC3)c(=O)c3c(Nc4ccc(I)cc4F)n(C)c(=O)c(C)c32)c1 [Trametinib] (partner 0.02 µM)
In short: as §1

Cell Line	relative viability (IPA-3 + AZD7762; first compound 0.2 µM)	relative viability (IPA-3 + AZD7762; first compound 0.6325 µM)	relative viability (IPA-3 + AZD7762; first compound 2 µM)	relative viability (IPA-3 + AZD7762; first compound 6.325 µM)	relative viability (IPA-3 + AZD7762; first compound 20 µM)	relative viability (IPA-3 + Pemetrexed; first compound 0.2 µM)	relative viability (IPA-3 + Pemetrexed; first compound 0.6325 µM)	relative viability (IPA-3 + Pemetrexed; first compound 2 µM)	relative viability (IPA-3 + Pemetrexed; first compound 6.325 µM)	relative viability (IPA-3 + Pemetrexed; first compound 20 µM)	relative viability (IPA-3 + Decitabine; first compound 0.2 µM)	relative viability (IPA-3 + Decitabine; first compound 0.6325 µM)	relative viability (IPA-3 + Decitabine; first compound 2 µM)	relative viability (IPA-3 + Decitabine; first compound 6.325 µM)	relative viability (IPA-3 + Decitabine; first compound 20 µM)	relative viability (RAF265 + Trametinib; first compound 0.01 µM)	relative viability (RAF265 + Trametinib; first compound 0.03162 µM)	relative viability (RAF265 + Trametinib; first compound 0.1 µM)	relative viability (RAF265 + Trametinib; first compound 0.3162 µM)	relative viability (RAF265 + Trametinib; first compound 1 µM)
201T	0.641	0.584	0.724	0.699	0.828	0.311	0.349	0.373	0.295	0.338	0.888	0.861	0.839	0.868	0.947	0.781	0.696	0.717	0.748	0.716
A549	–	–	–	–	–	–	–	–	–	–	0.379	0.278	0.128	0.274	0.179	–	–	–	–	–
A-427	0.902	0.701	0.731	0.706	0.772	1.06	1.01	0.998	0.903	0.982	0.571	0.576	0.547	0.544	0.63	0.905	0.507	0.592	0.403	0.198
ABC-1	0.888	0.766	0.737	0.992	0.965	–	–	–	–	–	1.35	1.02	1.33	0.99	1.26	–	–	–	–	–
BEN	0.726	0.656	0.801	0.767	0.672	0.751	0.843	0.852	0.814	0.774	0.612	0.824	0.758	0.712	0.665	1.12	1.25	1.05	1.17	0.908
CAL-12T	0.634	0.662	0.661	0.629	0.686	1.21	0.983	0.942	1.26	1.24	–	–	–	–	–	0.334	0.296	0.273	0.209	0.333
COR-L23	–	–	–	–	–	0.212	0.194	0.193	0.198	0.204	0.553	0.469	0.41	0.419	0.256	0.684	0.444	0.331	0.247	0.207
COR-L 105	–	–	–	–	–	1.22	0.904	1.07	1.18	1.14	0.652	0.609	0.657	0.66	0.649	0.47	0.428	0.429	0.38	0.348
ChaGo-K-1	0.986	0.908	0.859	0.952	0.946	0.257	0.264	0.272	0.281	0.263	0.536	0.479	0.503	0.509	0.487	0.903	0.965	0.859	0.776	0.632
EKVX	0.858	0.708	0.72	0.654	0.744	0.407	0.439	0.429	0.426	0.582	0.342	0.396	0.26	0.297	0.332	0.387	0.385	0.417	0.217	0.277
EMC-BAC-2	1.15	1.17	1.12	1.08	1.16	0.456	0.461	0.458	0.437	0.464	1.02	0.967	0.958	0.819	1.07	0.977	0.857	0.85	0.62	0.313
EPLC-272H	0.185	0.204	0.218	0.234	0.16	0.415	0.309	0.337	0.355	0.371	0.406	0.397	0.325	0.38	0.397	0.28	0.287	0.3	0.204	0.205
H3255	1.03	0.919	0.865	0.912	1	0.572	0.551	0.561	0.527	0.548	0.634	0.571	0.577	0.548	0.632	0.719	0.585	0.657	0.271	0.458
HARA	0.341	0.324	0.339	1.04	0.273	0.298	0.227	0.249	0.229	0.24	0.474	0.517	0.544	0.578	0.621	0.771	0.484	0.673	0.353	0.308
HCC-15	1.48	1.29	1.18	1.18	1.37	0.222	0.23	0.214	0.225	0.221	0.754	0.572	0.612	0.61	0.629	0.346	0.403	0.379	0.338	0.21
HCC-44	0.963	0.998	1.02	1	0.907	0.607	0.575	0.588	0.617	0.616	0.951	0.943	0.879	0.924	0.846	0.938	1.02	1.08	1.01	0.966
HCC-78	0.712	0.625	0.671	0.697	0.904	0.918	0.894	0.999	0.869	0.953	0.74	0.665	0.618	0.548	0.649	0.79	0.913	0.728	0.705	0.537
HCC-366	0.443	0.337	0.334	0.432	0.316	0.192	0.147	0.21	0.169	0.178	0.399	0.35	0.349	0.335	0.321	0.414	0.302	0.264	0.251	0.165
HCC-827	0.256	0.281	0.253	0.355	0.286	0.264	0.261	0.241	0.254	0.254	0.359	0.34	0.33	0.312	0.327	0.592	0.483	0.544	–	0.362

Cell Line	relative viability (IPA-3 + AZD7762; first compound 0.2 µM)	relative viability (IPA-3 + AZD7762; first compound 0.6325 µM)	relative viability (IPA-3 + AZD7762; first compound 2 µM)	relative viability (IPA-3 + AZD7762; first compound 6.325 µM)	relative viability (IPA-3 + AZD7762; first compound 20 µM)	relative viability (IPA-3 + Pemetrexed; first compound 0.2 µM)	relative viability (IPA-3 + Pemetrexed; first compound 0.6325 µM)	relative viability (IPA-3 + Pemetrexed; first compound 2 µM)	relative viability (IPA-3 + Pemetrexed; first compound 6.325 µM)	relative viability (IPA-3 + Pemetrexed; first compound 20 µM)	relative viability (IPA-3 + Decitabine; first compound 0.2 µM)	relative viability (IPA-3 + Decitabine; first compound 0.6325 µM)	relative viability (IPA-3 + Decitabine; first compound 2 µM)	relative viability (IPA-3 + Decitabine; first compound 6.325 µM)	relative viability (IPA-3 + Decitabine; first compound 20 µM)	relative viability (RAF265 + Trametinib; first compound 0.01 µM)	relative viability (RAF265 + Trametinib; first compound 0.03162 µM)	relative viability (RAF265 + Trametinib; first compound 0.1 µM)	relative viability (RAF265 + Trametinib; first compound 0.3162 µM)	relative viability (RAF265 + Trametinib; first compound 1 µM)
HOP-62	0.787	0.828	0.657	0.606	0.661	0.333	0.315	0.345	0.313	0.328	0.193	0.213	0.231	0.229	0.235	0.468	0.404	0.406	0.379	0.218
LC-2-ad	0.896	0.873	0.899	0.897	0.96	0.294	0.28	0.285	0.281	0.307	0.788	0.822	0.82	0.84	0.788	0.931	0.958	1.01	0.839	0.432
LCLC-97TM1	0.356	0.205	0.307	0.251	0.247	0.165	0.184	0.164	0.148	0.179	0.242	0.216	0.211	0.196	0.235	0.225	0.151	0.149	0.16	0.0901
LCLC-103H	0.862	0.814	0.744	0.788	0.872	0.474	0.463	0.461	0.504	0.476	0.703	0.684	0.749	0.748	0.638	0.679	0.689	0.609	0.638	0.465
LK-2	0.456	0.394	0.355	0.672	0.397	0.29	0.255	0.272	0.287	0.242	0.297	0.333	0.32	0.442	0.346	0.721	0.628	0.787	0.799	0.53
LOU-NH91	0.8	0.747	0.799	0.76	0.788	0.382	0.377	0.465	0.387	0.411	0.821	0.856	0.815	0.82	0.888	0.837	0.756	0.717	0.71	0.636
LU99A	0.403	0.318	0.28	0.365	0.309	0.188	0.189	0.143	0.187	0.175	0.974	0.813	0.881	0.867	0.879	0.551	0.469	0.314	0.288	0.21
NCI-H520	–	–	–	–	–	0.75	0.664	–	0.64	0.755	0.528	0.523	–	0.413	0.453	0.684	0.65	0.508	0.519	0.338
NCI-H661	–	–	–	–	–	0.934	0.962	0.877	0.911	0.907	0.664	0.548	0.528	0.543	0.528	0.596	0.484	0.371	0.332	0.339
NCI-H727	0.652	0.604	0.674	0.617	0.706	–	–	–	–	–	0.783	0.916	0.71	0.867	0.997	0.403	0.371	0.392	0.334	0.317
NCI-H1563	–	–	–	–	–	0.807	0.797	0.792	1	0.864	–	–	–	–	–	–	–	–	–	–
NCI-H1650	–	–	–	–	–	0.346	0.39	0.398	0.364	0.466	0.44	0.396	0.386	0.349	0.374	0.786	0.708	0.568	0.419	0.43
NCI-H1703	0.119	0.121	0.126	0.145	0.133	–	–	–	–	–	–	–	–	–	–	–	–	–	–	–
NCI-H2009	–	–	–	–	–	1.16	0.974	1.03	0.958	1.09	0.38	0.353	0.444	0.395	0.312	0.29	0.303	0.189	0.188	0.165
NCI-H2023	–	–	–	–	–	0.249	0.207	0.266	0.227	0.243	0.233	0.225	0.209	0.216	0.2	0.608	0.508	0.533	0.55	0.266
NCI-H2228	–	–	–	–	–	0.369	0.334	0.336	0.354	0.341	–	–	–	–	–	0.651	0.58	0.423	0.201	0.247
SK-LU-1	–	–	–	–	–	1.16	0.938	1.01	0.926	1.14	0.708	0.497	0.658	0.689	0.651	0.559	0.419	0.393	0.274	0.257
SK-MES-1	–	–	–	–	–	1.04	0.886	0.991	0.824	0.918	0.455	0.394	0.423	0.296	0.31	0.601	0.531	0.443	0.317	0.285
SW 1573	–	–	–	–	–	0.964	0.87	0.921	0.906	0.162	0.7	0.452	0.485	0.56	0.121	0.665	0.597	0.556	0.54	0.255
